Test results reported in patent US11000033B2, “Ketone or oxime compound, and herbicide” (NISSAN CHEMICAL CORPORATION, priority 2014, dated 2021).

Assays:
Type in all cases: in vivo
[1] = test system: Monochoria vaginalis; assay: Test Example 2: herbicidal activity, application during weed generation in submerged conditions (symbol C); details: Table 23; application herbicide amount 320 g/ha; grade 0-5 by criteria of Test Example 1
Summary of the method: (§1)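 Compound was applied as a water-diluted emulsion into the standing water of flooded pots (4 cm) once co-sown weeds reached one to two leaves. Greenhouse temperature was 25° C. to 30° C., soil was alluvial, and each species was rated visually after 3 weeks.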

[2] = test system: Lolium multiflorum Lam.; assay: Test Example 5: herbicidal effect by foliage application, plastic box (symbol K); details: 320 g/ha, 3 weeks after application
Summary of the method: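 Effect is rated 3 weeks after a foliar spray of water-diluted emulsion concentrate at a predetermined herbicide amount. Plants had grown 14 days in a 25° C. to 30° C. greenhouse from seed in sterilized diluvial soil.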

[3] = test system: rapeseed; assay: Test Example 4: effect on crop by soil treatment (symbol g); details: for g: rapeseed, effect on crop grade: application herbicide amount 320 g/ha
Summary of the method: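 Seeds were sown in spots on sterilized diluvial soil in a plastic box and covered with about 1.5 cm of soil. Plants were then grown in a greenhouse at 25° C. to 30° C.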

[4] = test system: Scirpus juncoides; assay: Test Example 2: herbicidal activity, application during weed generation in submerged conditions (symbol B); details: Table 23; application herbicide amount 320 g/ha; grade 0-5 by criteria of Test Example 1
Summary of the method: as §1

[5] = test system: soybean; assay: Test Example 5: effect on crop by foliage application, plastic box (symbol d); details: 320 g/ha, 3 weeks after application
Summary of the method: (§2)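 Foliage-application test plants come from spot sowing in sterilized diluvial soil under a soil layer of about 1.5 cm, grown at 25° C. to 30° C. in a greenhouse.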

[6] = test system: corn; assay: Test Example 5: effect on crop by foliage application, plastic box (symbol c); details: 320 g/ha, 3 weeks after application
Summary of the method: as §2

[7] = test system: Abutilon theophrasti; assay: Test Example 4: herbicidal effect by soil treatment (symbol M)
Summary of the method: (§3)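 Seeds were sown in sterilized diluvial soil, covered with about 1.5 cm of soil, and the soil surface was sprayed with a water-diluted emulsion of the compound at a predetermined rate. Plants grew in a greenhouse at 25° C. to 30° C.; effects were scored visually 3 weeks after application.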

[8] = test system: Monochoria vaginalis; assay: Test Example 1: herbicidal activity, application before weed generation in submerged conditions (symbol C); details: application herbicide amount 320 g/ha
Summary of the method: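 Flooded alluvial soil (4 cm water) was mixed-sown with the three weed species, and 2.5-leaf rice seedlings were transplanted. On sowing day, a water-diluted emulsion at a predetermined rate was applied to the water surface. After 3 weeks in a 25–30 °C greenhouse, effect was scored 0–5.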

[9] = test system: Chenopodium album; assay: Test Example 4: herbicidal effect by soil treatment (symbol O)
Summary of the method: as §3

[10] = test system: Echinochloa crus-galli var. crus-galli; assay: Test Example 4: herbicidal effect by soil treatment (symbol H)
Summary of the method: as §3

[11] = test system: Avena fatua; assay: Test Example 4: herbicidal effect by soil treatment (symbol I)
Summary of the method: as §3

[12] = test system: Digitaria ciliaris; assay: Test Example 4: herbicidal effect by soil treatment (symbol F)
Summary of the method: as §3

[13] = test system: Echinochloa oryzacola Vasing.; assay: Test Example 2: herbicidal activity, application during weed generation in submerged conditions (symbol A); details: Table 23; application herbicide amount 320 g/ha; grade 0-5 by criteria of Test Example 1
Summary of the method: as §1

[14] = test system: corn; assay: Test Example 4: effect on crop by soil treatment (symbol c); details: for c: corn, effect on crop grade: application herbicide amount 320 g/ha
Summary of the method: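 Grown at 25° C. to 30° C. in a greenhouse, the crops came from seed sown spot-wise in sterilized diluvial soil under roughly 1.5 cm of covering soil.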

[15] = test system: Galium spurium; assay: Test Example 4: herbicidal effect by soil treatment (symbol Q)
Summary of the method: as §3

[16] = test system: Apera spica-venti; assay: Test Example 4: herbicidal effect by soil treatment (symbol L)
Summary of the method: as §3

[17] = test system: rice plant; assay: Test Example 5: effect on crop by foliage application, plastic box (symbol b); details: 320 g/ha, 3 weeks after application
Summary of the method: as §2

[18] = application herbicide amount 320 g/ha

SMILES	Herbicidal effect grade, C: Monochoria vaginalis [1]	Herbicidal effect grade, B: Scirpus juncoides [4]	Herbicidal effect grade, C: Monochoria vaginalis [8]	Herbicidal effect grade, A: Echinochloa oryzacola Vasing. [13]	K: Lolium multiflorum Lam., herbicidal effect grade [2]	g: rapeseed, effect on crop grade [3]	d: soybean, effect on crop grade [5]	c: corn, effect on crop grade [6]	M: Abutilon theophrasti, herbicidal effect grade [7, 18]	O: Chenopodium album, herbicidal effect grade [9, 18]	H: Echinochloa crus-galli var. crus-galli, herbicidal effect grade [10, 18]	I: Avena fatua, herbicidal effect grade [11, 18]	F: Digitaria ciliaris, herbicidal effect grade [12, 18]	c: corn, effect on crop grade [14]	Q: Galium spurium, herbicidal effect grade [15, 18]	L: Apera spica-venti, herbicidal effect grade [16, 18]	b: directly sowed rice plant, effect on crop grade [17]	further results
COCCOC(=O)OC1=C(c2c(C)cc(C)cc2C)C(=O)C(CC(C)=NOC)C1 (stereo not drawn) [1-147]	3 (Herbicidal ratio of 40% or higher and lower than 70%)	5 (Herbicidal ratio of 90% or more (almost completely withered))	1 (Herbicidal ratio of 5% or higher and lower than 20%)	5 (Herbicidal ratio of 90% or more (almost completely withered))	–	–	–	–	–	–	–	–	–	–	–	–	–	K: Lolium multiflorum Lam., herbicidal effect (criteria 0-5) [2]: 5 (Herbicidal ratio of 90% or more (almost completely withered)); g: rapeseed, effect grade on crop ([3]; 320 g/ha): 4 (Herbicidal ratio of 70% or higher and lower than 90%); d: soybean, effect on crop (criteria 0-5) [5]: 3 (Herbicidal ratio of 40% or higher and lower than 70%); c: corn, effect on crop (criteria 0-5) [6]: 5 (Herbicidal ratio of 90% or more (almost completely withered)); M: Abutilon theophrasti, herbicidal effect grade ([7]; 320 g/ha): 5 (Herbicidal ratio of 90% or more (almost completely withered)); O: Chenopodium album, herbicidal effect grade ([9]; 320 g/ha): 0 (Herbicidal ratio of 5% or lower (almost no effect)); H: Echinochloa crus-galli var. crus-galli, herbicidal effect grade ([10]; 320 g/ha): 5 (Herbicidal ratio of 90% or more (almost completely withered)); I: Avena fatua, herbicidal effect grade ([11]; 320 g/ha): 5 (Herbicidal ratio of 90% or more (almost completely withered)); F: Digitaria ciliaris, herbicidal effect grade ([12]; 320 g/ha): 5 (Herbicidal ratio of 90% or more (almost completely withered)); c: corn, effect grade on crop ([14]; 320 g/ha): 5 (Herbicidal ratio of 90% or more (almost completely withered)); Q: Galium spurium, herbicidal effect grade ([15]; 320 g/ha): 0 (Herbicidal ratio of 5% or lower (almost no effect)); L: Apera spica-venti, herbicidal effect grade ([16]; 320 g/ha): 5 (Herbicidal ratio of 90% or more (almost completely withered)); b: directly sowed rice plant, effect on crop (criteria 0-5) [17]: 5 (Herbicidal ratio of 90% or more (almost completely withered))
CCOC(=O)C(C(=O)c1ccccc1)C1CC(O)=C(c2c(C)cc(C)cc2C)C1=O (stereo not drawn) [2-008]	0 (Herbicidal ratio of 5% or lower (almost no effect))	0 (Herbicidal ratio of 5% or lower (almost no effect))	0 (Herbicidal ratio of 5% or lower (almost no effect))	0 (Herbicidal ratio of 5% or lower (almost no effect))	4 (Herbicidal ratio of 70% or higher and lower than 90%)	0 (Herbicidal ratio of 5% or lower (almost no effect))	1 (Herbicidal ratio of 5% or higher and lower than 20%)	1 (Herbicidal ratio of 5% or higher and lower than 20%)	0 (Herbicidal ratio of 5% or lower (almost no effect))	0 (Herbicidal ratio of 5% or lower (almost no effect))	0 (Herbicidal ratio of 5% or lower (almost no effect))	0 (Herbicidal ratio of 5% or lower (almost no effect))	0 (Herbicidal ratio of 5% or lower (almost no effect))	0 (Herbicidal ratio of 5% or lower (almost no effect))	0 (Herbicidal ratio of 5% or lower (almost no effect))	0 (Herbicidal ratio of 5% or lower (almost no effect))	4 (Herbicidal ratio of 70% or higher and lower than 90%)	–
Cc1cc(C)c(C2=C(O)CC(CC(=O)C3CC3)C2=O)c(C)c1 (stereo not drawn) [2-017]	4 (Herbicidal ratio of 70% or higher and lower than 90%)	4 (Herbicidal ratio of 70% or higher and lower than 90%)	3 (Herbicidal ratio of 40% or higher and lower than 70%)	5 (Herbicidal ratio of 90% or more (almost completely withered))	5 (Herbicidal ratio of 90% or more (almost completely withered))	5 (Herbicidal ratio of 90% or more (almost completely withered))	0 (Herbicidal ratio of 5% or lower (almost no effect))	2 (Herbicidal ratio of 20% or higher and lower than 40%)	4 (Herbicidal ratio of 70% or higher and lower than 90%)	0 (Herbicidal ratio of 5% or lower (almost no effect))	5 (Herbicidal ratio of 90% or more (almost completely withered))	0 (Herbicidal ratio of 5% or lower (almost no effect))	5 (Herbicidal ratio of 90% or more (almost completely withered))	0 (Herbicidal ratio of 5% or lower (almost no effect))	0 (Herbicidal ratio of 5% or lower (almost no effect))	3 (Herbicidal ratio of 40% or higher and lower than 70%)	5 (Herbicidal ratio of 90% or more (almost completely withered))	–
